In assay [1] the test system is L casei. In words: L casei cultures in BHI with additives, foil-wrapped or exposed to light (Example 16). Format: cell-based. Here is the method:
Pieces of blank PGA scaffold and PGA scaffold containing 5 w/w % erythrosine B were incubated overnight in BHI and the scaffold was removed before adding L Casei culture, the erythrosine B concentration was measured and adjusted to 22 μM. For each of the ‘media’ shown in Table 1, two tubes of culture, one tube wrapped in foil, were exposed to light for 30 minutes. After exposure to light, serial dilutions were made of the cultures in BHI which were then grown on Columbian blood agar plates for 48 hours. The number of colonies on the plates was then counted and those having between 30 and 300 colonies were used to calculate the cfu/ml for the cultures. […] PDT (erythrosine plus light) causes 6 logs of cell kill, whereas in the presence of glycolic acid released from the scaffold (or added to a similar concentration out of a bottle), the amount of cell killing doubles or more.

Assay [2] has as its system L. Casei. Description: Bacterial killing assay (PDT, Example 5). Type of assay: cell-based. The conditions noted are these: 22 μM erythrosine in BHI broth. As for the experimental part:
L. Casei is a known constituent of gut microflora. A growth curve for L. Casei both in the presence and without erythrosine was prepared using broth turbidity measured by spectrophotometry using a Shimadzu UV-1601 UV-Visible spectrophotometer. L. Casei were grown in Brain Heart Infusion (BHI) liquid broth at 37° C. to stationary phase overnight. A fresh volume of BHI broth containing erythrosine released from the scaffold at a concentration known to be effective for PDT was inoculated using the stationary phase culture and incubated at 37° C. in a shaking incubator. Bacteria were also incubated in BHI with non scaffold derived erythrosine, BHI containing an equal concentration of scaffold breakdown products from a non erythrosine containing scaffold or blank scaffold and BHI alone with no additives. Since bacteria are most sensitive to PDT during log phase this was chosen as the time most appropriate for irradiation therefore irradiation took place 2 hours 30 minutes after inoculation. […] Following irradiation bacterial viability was assessed by spreading broth samples on Columbia blood agar plates and following 48 hour incubation counting the number of visible colonies. The number of colony forming units (cfu)/ml of broth were then calculated. […]

Structures can show the parent of a compound that is named as a salt.

In the case of `O=C1OC2(c3ccccc31)c1cc(I)c(O)c(I)c1Oc1c2cc(I)c(O)c1I` [Erythrosin B, disodium salt of 2′,4,′5,′7′-tetraiodofluorescein], the “cell kill by PDT (erythrosine plus light)” value in assay [1] (22 μM, light for 30 minutes) amounted to 6 logs. Further, the “colony forming units, culture tubes wrapped in foil and exposed to light (F)” value in assay [1] (BHI, 30 minutes, foil-wrapped, erythrosin 22 μM where present) is given as 2.75 × 10^8 cfu/ml. In addition, the “colony forming units, culture tubes exposed to light (L)” value in assay [1] (BHI, exposed to light for 30 minutes, erythrosin 22 μM where present) is 2.1 × 10^2 cfu/ml. Further, the log10 kill in assay [2] (10 minutes irradiation) came to 6.1 log10; in assay [2] (30 minute irradiation), 6.4 log10.

Values taken from patent US20120015331A1, “SCAFFOLD” (priority 2009, published 2012).
